From patent US9782424B2, “Synergistic combination comprising avermectins and a NSAID for tumor inhibition” (Ectin Research AB, priority 2011, dated 2017)
“And” between values parts separate entries of the source, which are not always exact repeats. Identical values can stand only once.

What was measured:
[1] = tested on: urinary bladder cell line (UM-UC-3); assay: XTT-assay proliferation rate, urinary bladder cell line; type: cell-based, human; conditions: for Proliferation rate compared to untreated medium control: UM-UC-3 (Table 3); for Proliferation rate in per cent compared to untreated medium control: UM-UC-3
Experimental: Commercially available human tumor cell lines were purchased from ATCC (ATCC/LGC-standards, Borás, Sweden). […] Briefly, ampoules of frozen cells were thawed by submerging into a 37° C. water bath for 45 s. […] With supernatant discarded, cell pellets were further resuspended with 5 ml complete medium into 25 cm^2 cell culture flasks (Cell+, Sarstedt, Nümbrecht, Germany). Tumor cells were cultured until sub-confluence and further sub-cultured with Trypsin (0.5%), EDTA (0.2%) solution (T4174, TE-10x, Sigma) in sterile sodium chloride. Culture media was changed two-three times a week. Culture flasks (Cell+, Sarstedt, Nümbrecht, Germany) and culture plates (Falcon/BD, Franklin Lakes, N.J., USA) were used for experimental set-ups. Cells were regularly monitored using an inverted microscope connected to a digital photo equipment (Axiovert 25 and Axiovision, Zeiss, Carl Zeiss AG, Germany) (FIG. 1). Described culture techniques and equipment have been used extensively in the laboratory
The proliferation rates of the different human tumor cell lines were studied using a method based on the conversion of a sodium salt (XTT-assay, Sigma) into a stable orange color that could be analyzed in a spectrophotometer. […] The color change was measured using a 96-well plate reader with software to calculate the absorbance at 450 nm (V-max/Softmax Pro, Molecular Devices, USA).
(§1) Increasing concentrations of substance ivermectin was added with an 8-channel pipette (Titertek, Kem-En-Tec, Taastrup, Denmark) together with sterile pipette tips (Molecular Bioproducts, San Diego, Calif., USA). Cell cultures including active substances were incubated for 24 hours (and 96 hours). Untreated wells including culture medium only served as untreated controls. The XTT-assay substrate was added and after gentle agitation using a micro plate shaker, absorbencies at 450 and 650 nm were measured. Levels from medium were subtracted and compared with control wells, using culture medium only.

[2] = tested on: colorectal cell line (HT29); assay: XTT-assay proliferation rate, colorectal cell line HT29; type: cell-based, human
Experimental: Commercially available human tumor cell lines were purchased from ATCC (ATCC/LGC-standards, Borás, Sweden). Cell lines from urinary bladder (UM-UC-3, #CRL-1749), colorectal carcinoma (Colo205, #CCL-222 and HT29, #HTB-38), prostate carcinoma (LNCaP, #CRL-1740) and breast carcinoma (ZR-75-1, #CRL-1500) were purchased and stored in liquid nitrogen. Cells were cultured in Roswell Park Memorial Institute media (RPMI-1640) or minimum essential medium with Earl's salts (EMEM) supplemented with 10% Foetal calf serum (FCS, Sigma) and cultured using a 37° C. cell culture incubator (Forma Scientific, NinoLab, Kungsbacka, Sweden) with 5% CO2 humidified atmosphere. Tumor cell lines were handled aseptically using a laminar airflow (LAF) bench (Holten 2448, Ninolab, Sweden) and stored in a liquid nitrogen tank and were initiated in culture as previously described (Falk P. Experimental models of the peritoneal environment: Effects of TGF-beta and Hyaluronan. Göteborg: University of Gothenburg; 2008). Briefly, ampoules of frozen cells were thawed by submerging into a 37° C. water bath for 45 s. Cells were resuspended in 10 ml of preheated RPMI-1640 with 10% FCS and centrifuged in 260 g for 10 min. With supernatant discarded, cell pellets were further resuspended with 5 ml complete medium into 25 cm^2 cell culture flasks (Cell+, Sarstedt, Nümbrecht, Germany). Tumor cells were cultured until sub-confluence and further sub-cultured with Trypsin (0.5%), EDTA (0.2%) solution (T4174, TE-10x, Sigma) in sterile sodium chloride. Culture media was changed two-three times a week. Culture flasks (Cell+, Sarstedt, Nümbrecht, Germany) and culture plates (Falcon/BD, Franklin Lakes, N.J., USA) were used for experimental set-ups. Cells were regularly monitored using an inverted microscope connected to a digital photo equipment (Axiovert 25 and Axiovision, Zeiss, Carl Zeiss AG, Germany) (FIG. 1). Described culture techniques and equipment have been used extensively in the laboratory
The proliferation rates of the different human tumor cell lines were studied using a method based on the conversion of a sodium salt (XTT-assay, Sigma) into a stable orange color that could be analyzed in a spectrophotometer. The color change is proportional to the mitochondrial dehydrogenase activity resulting in an effective technique for measuring cell toxicity (Roehm N W, Rodgers G H, Hatfield S M, Glasebrook A L. An improved colorimetric assay for cell proliferation and viability utilizing the tetrazolium salt XTT. J Immunol Methods 1991;142(2):257-65) or cell proliferation. The color change was measured using a 96-well plate reader with software to calculate the absorbance at 450 nm (V-max/Softmax Pro, Molecular Devices, USA). Cells were cultured until approx 50% confluence and then pre-incubated for 24 h with RPMI-1640 or EMEM containing 1% FCS only. RPMI 1640 and EMEM without phenol red was used during the experiments to reduce the red color background signal in the XTT-assay.
as §1, with “Prior to the experimental start all cells were gently washed once with RPMI 1640 and EMEM with 1% FCS. Increasing” for “Increasing”

22,23-dihydroavermectin B1a+22,23-dihydroavermectin B1b [ivermectin]
Proliferation rate compared to untreated medium control ([1]; IVM 1 μmol/L alone): 99 ± 1%
Proliferation rate compared to untreated medium control ([1]; IVM 10 μmol/L alone): 105 ± 3%
Proliferation rate compared to untreated medium control ([1]; IVM 100 μmol/L alone): 90±1%
Proliferation rate compared to untreated medium control ([1]; IVM 100 μmol/L alone, listed as IVM): 90 ± 1%
Proliferation rate in per cent compared to untreated medium control ([1]; ivermectin 10e-9 mol/L): 100 ± 3%
Proliferation rate in per cent compared to untreated medium control ([1]; ivermectin 10e-8 mol/L): 96 ± 5%
Proliferation rate in per cent compared to untreated medium control ([1]; ivermectin 10e-7 mol/L): 95 ± 9%
Proliferation rate in per cent compared to untreated medium control ([1]; ivermectin 10e-6 mol/L): 91 ± 3%
Proliferation rate in per cent compared to untreated medium control ([1]; ivermectin 10e-5 mol/L): 34±8% and 34 ± 6%
Proliferation rate in per cent compared to untreated medium control ([1]; ivermectin 10e-4 mol/L): 34±3%
Proliferation rate in per cent compared to untreated medium control ([2]; ivermectin 10e-9 mol/L): 109 ± 14%
Proliferation rate in per cent compared to untreated medium control ([2]; ivermectin 10e-8 mol/L): 112 ± 12%
Proliferation rate in per cent compared to untreated medium control ([2]; ivermectin 10e-7 mol/L): 106 ± 9%
Proliferation rate in per cent compared to untreated medium control ([2]; ivermectin 10e-6 mol/L): 91 ± 5%
Effect on proliferation rate ([2]; ivermectin 100 μM): decreased proliferation rate
Proliferation rate in per cent compared to untreated medium control ([2]; ivermectin 10e-5 mol/L): 85±11%
Proliferation rate in per cent compared to untreated medium control ([2]; ivermectin 10e-4 mol/L): 5±1%
